The assay concerns phospholipase A2. Nature of the assay: Egg yolk coagulation by goat seminal plasma in lactose yolk extender, image analysis with ImageJ. Format: biochemical. As to the method: An egg yolk extender was prepared substituting lactose (Trizma base 131.5 mM, Lactose 73 mM 40% v:v egg yolk), without citric acid and pH was adjusted to a standard extender pH of 7. Semen from […] was collected using an artificial vagina. The ejaculate was centrifuged for 5 min at 1000×g. The supernatant (seminal plasma) was removed, then 1 part seminal plasma was added to 1 part extender to create a 20% yolk solution. Extender was either lactose yolk extender alone or lactose yolk extender modified to contain the phospholipase inhibitor curcumin as found in Sea Buckthorn (see Gupta et al. Molecular and Cellular biochemistry October 2006 290:193, hereby incorporated by reference). Representative pictures were taken of each solution, then the 22° C. solutions of seminal plasma plus the various extenders were frozen to −80° C. and allowed to remain frozen for >24 hrs. Samples were thawed by incubation in 37° C. water bath for 1 minute, then representative pictures were taken. For each picture, the negative space (the white area visible between droplets) was measured using ImageJ software by adjusting the image threshold using “Auto” setting then analyzing particle size (see Rasband, W. S., ImageJ, U.S. National Institutes of Health, Bethesda, Md., USA, https://imagej.nih.gov/ij/, 1997-2018, hereby incorporated by reference). The mean particle size was recorded and the images were analyzed in triplicate. […] The left column is a non-limiting example of a pictorial representation of the lactose yolk solution without seminal plasma (control) pre-freezing and post-freezing. One observes that there is no significant change in the size of the egg yolk lipid droplets, and no coagulation has occurred.

Molecules are shown by their SMILES. Marks after values point to notes of the source that are not given here.

For the compound `COc1cc(/C=C/C(=O)CC(=O)/C=C/c2ccc(O)c(OC)c2)ccc1O` [curcumin], the “coagulation of egg yolk particles compared to Control” value (area of coagulation, seminal plasma with vs without inhibitor, FIG. 8) is given as “statically significant decrease”. Also, the “Post-Thaw Area” value (frozen to −80° C. >24 hrs, thawed at 37° C., single pygmy buck, p < 0.05) is listed as 35.6* pixel^2. The “Pre-Freeze Area” value (goat seminal plasma plus lactose yolk extender, 0.2% curcumin, single pygmy buck, p < 0.05) is listed as 26.3* pixel^2. Further, where the note is “pre-freeze seminal plasma with 0.2% plant-derived curcumin vs without curcumin”, the pre-freeze coagulation entry is “less coagulated”. The compound also returned a Coagulation rank (single pygmy buck, untreated seminal plasma ranks 2) of 1.

Source of the values: patent publication US20210120808A1, “Methods and Systems for Synergistic Continuity Approaches to Treatment and Preservation of Biological Cells” (Membrane Protective Technologies, Inc., priority 2017, published 2021).
